# Experimental data: patent US11311522B1 (Cavion, Inc., priority 2018, dated 2022)
# Experiment: PN002/Part II: safety and tolerability
# Assay type: in vivo
# Excerpt: Clinical safety was monitored throughout the study by adverse events, clinical laboratory tests, vital signs, ECGs, and ECG telemetry.
# The subject was not on telemetry at the time.
compound,measurement,setting,value
CC(C)c1ccc(CC(=O)N[C@H](C)c2ccc(OCC(F)(F)F)cn2)cc1 [CX-8998],Abnormal physical sensation,2 mg/d,0 n %
same,Abnormal sensation of limbs,2 mg/d,0 n %
same,Anger,2 mg/d,0 n %
same,Application site erythema,2 mg/d,0 n %
same,Application site pruritus,2 mg/d,0 n %
same,At least 1 adverse event,2 mg/d,4 (66.7) n %
same,Backache,2 mg/d,0 n %
same,Clamminess,2 mg/d,0 n %
same,Daydreaming,2 mg/d,0 n %
same,Disorientation,2 mg/d,1 (16.7) n %
same,Dizziness,2 mg/d,0 n %
same,Drowsiness,2 mg/d,0 n %
same,Dyspepsia,2 mg/d,0 n %
same,Euphoric mood,2 mg/d,0 n %
same,Eye Disorders,2 mg/d,0 n %
same,Feeling drunk,2 mg/d,0 n %
same,Feeling of relaxation,2 mg/d,0 n %
same,Floating feeling,2 mg/d,0 n %
same,Fuzzy head,2 mg/d,0 n %
same,Gastrointestinal Disorders,2 mg/d,2 (33.3) n %
same,Hallucination,2 mg/d,0 n %
same,Headache,2 mg/d,1 (16.7) n %
same,Heaviness of head,2 mg/d,0 n %
same,Hyperactivity,2 mg/d,0 n %
same,Hypoaesthesia mouth,2 mg/d,0 n %
same,Increased state of alertness,2 mg/d,0 n %
same,Intermittent headache,2 mg/d,0 n %
same,Lethargy,2 mg/d,0 n %
same,Lightheadedness,2 mg/d,0 n %
same,Mood altered,2 mg/d,0 n %
same,Mood change,2 mg/d,0 n %
same,Musculoskeletal and Connective Tissue Disorders,2 mg/d,2 (33.3) n %
same,Nausea,2 mg/d,2 (33.3) n %
same,Nervous System Disorders,2 mg/d,1 (16.7) n %
same,Paraesthesia generalized,2 mg/d,0 n %
same,Paranoia,2 mg/d,0 n %
same,Psychiatric Disorders,2 mg/d,1 (16.7) n %
same,"Respiratory, Thoracic and Mediastinal Disorders",2 mg/d,1 (16.7) n %
same,Sedation,2 mg/d,0 n %
same,Sensation of heaviness,2 mg/d,0 n %
same,Sensation of pressure,2 mg/d,0 n %
same,Skin and Subcutaneous Tissue Disorders,2 mg/d,0 n %
same,Sleep difficult,2 mg/d,0 n %
same,Sleep disturbance,2 mg/d,0 n %
same,Somnolence,2 mg/d,0 n %
same,Sore throat,2 mg/d,1 (16.7) n %
same,Spaced out,2 mg/d,0 n %
same,Syncope,2 mg/d,1 (16.7) n %
same,Taste change,2 mg/d,0 n %
same,Temporal disorientation,2 mg/d,0 n %
same,Tingling,2 mg/d,1 (16.7) n %
same,Tiredness,2 mg/d,1 (16.7) n %
same,Visual disturbance,2 mg/d,0 n %
same,Vivid dreams,2 mg/d,0 n %
same,Vomiting,2 mg/d,1 (16.7) n %
same,Abnormal physical sensation,4 mg/d,0 n %
same,Abnormal sensation of limbs,4 mg/d,0 n %
same,Anger,4 mg/d,0 n %
same,Application site erythema,4 mg/d,0 n %
same,Application site pruritus,4 mg/d,0 n %
same,At least 1 adverse event,4 mg/d,5 (83.3) n %
same,Backache,4 mg/d,0 n %
same,Clamminess,4 mg/d,0 n %
same,Daydreaming,4 mg/d,0 n %
same,Disorientation,4 mg/d,0 n %
same,Dizziness,4 mg/d,0 n %
same,Drowsiness,4 mg/d,2 (33.3) n %
same,Dyspepsia,4 mg/d,0 n %
same,Euphoric mood,4 mg/d,1 (16.7) n %
same,Eye Disorders,4 mg/d,1 (16.7) n %
same,Feeling drunk,4 mg/d,0 n %
same,Feeling of relaxation,4 mg/d,4 (66.7) n %
same,Floating feeling,4 mg/d,1 (16.7) n %
same,Fuzzy head,4 mg/d,1 (16.7) n %
same,Gastrointestinal Disorders,4 mg/d,1 (16.7) n %
same,Hallucination,4 mg/d,0 n %
same,Headache,4 mg/d,3 (50.0) n %
same,Heaviness of head,4 mg/d,0 n %
same,Hyperactivity,4 mg/d,0 n %
same,Hypoaesthesia mouth,4 mg/d,0 n %
same,Increased state of alertness,4 mg/d,1 (16.7) n %
same,Intermittent headache,4 mg/d,1 (16.7) n %
same,Lethargy,4 mg/d,1 (16.7) n %
same,Lightheadedness,4 mg/d,4 (66.7) n %
same,Mood altered,4 mg/d,0 n %
same,Mood change,4 mg/d,0 n %
same,Musculoskeletal and Connective Tissue Disorders,4 mg/d,0 n %
same,Nausea,4 mg/d,0 n %
same,Nervous System Disorders,4 mg/d,5 (83.3) n %
same,Paraesthesia generalized,4 mg/d,0 n %
same,Paranoia,4 mg/d,0 n %
same,Psychiatric Disorders,4 mg/d,3 (50.0) n %
same,"Respiratory, Thoracic and Mediastinal Disorders",4 mg/d,0 n %
same,Sedation,4 mg/d,0 n %
same,Sensation of heaviness,4 mg/d,0 n %
same,Sensation of pressure,4 mg/d,0 n %
same,Skin and Subcutaneous Tissue Disorders,4 mg/d,1 (16.7) n %
same,Sleep difficult,4 mg/d,0 n %
same,Sleep disturbance,4 mg/d,1 (16.7) n %
same,Somnolence,4 mg/d,1 (16.7) n %
same,Sore throat,4 mg/d,0 n %
same,Spaced out,4 mg/d,0 n %
same,Syncope,4 mg/d,0 n %
same,Taste change,4 mg/d,0 n %
same,Temporal disorientation,4 mg/d,0 n %
same,Tingling,4 mg/d,0 n %
same,Tiredness,4 mg/d,2 (33.3) n %
same,Visual disturbance,4 mg/d,1 (16.7) n %
same,Vivid dreams,4 mg/d,2 (33.3) n %
same,Vomiting,4 mg/d,0 n %
same,Abnormal physical sensation,8 mg/d,0 n %
same,Abnormal sensation of limbs,8 mg/d,0 n %
same,Anger,8 mg/d,0 n %
same,Application site erythema,8 mg/d,3 (50.0) n %
same,Application site pruritus,8 mg/d,1 (16.7) n %
same,At least 1 adverse event,8 mg/d,6 (100) n %
same,Backache,8 mg/d,0 n %
same,Clamminess,8 mg/d,1 (16.7) n %
same,Daydreaming,8 mg/d,1 (16.7) n %
same,Disorientation,8 mg/d,0 n %
same,Dizziness,8 mg/d,0 n %
same,Drowsiness,8 mg/d,1 (16.7) n %
same,Dyspepsia,8 mg/d,2 (33.3) n %
same,Euphoric mood,8 mg/d,2 (33.3) n %
same,Eye Disorders,8 mg/d,2 (33.3) n %
same,Feeling drunk,8 mg/d,0 n %
same,Feeling of relaxation,8 mg/d,1 (16.7) n %
same,Floating feeling,8 mg/d,2 (33.3) n %
same,Fuzzy head,8 mg/d,1 (16.7) n %
same,Gastrointestinal Disorders,8 mg/d,3 (50.0) n %
same,Hallucination,8 mg/d,0 n %
same,Headache,8 mg/d,5 (83.3) n %
same,Heaviness of head,8 mg/d,0 n %
same,Hyperactivity,8 mg/d,2 (33.3) n %
same,Hypoaesthesia mouth,8 mg/d,0 n %
same,Increased state of alertness,8 mg/d,1 (16.7) n %
same,Intermittent headache,8 mg/d,1 (16.7) n %
same,Lethargy,8 mg/d,1 (16.7) n %
same,Lightheadedness,8 mg/d,4 (66.7) n %
same,Mood altered,8 mg/d,1 (16.7) n %
same,Mood change,8 mg/d,2 (33.3) n %
same,Musculoskeletal and Connective Tissue Disorders,8 mg/d,1 (16.7) n %
same,Nausea,8 mg/d,1 (16.7) n %
same,Nervous System Disorders,8 mg/d,6 (100) n %
same,Paraesthesia generalized,8 mg/d,1 (16.7) n %
same,Paranoia,8 mg/d,0 n %
same,Psychiatric Disorders,8 mg/d,3 (50.0) n %
same,"Respiratory, Thoracic and Mediastinal Disorders",8 mg/d,3 (50.0) n %
same,Sedation,8 mg/d,2 (33.3) n %
same,Sensation of heaviness,8 mg/d,1 (16.7) n %
same,Sensation of pressure,8 mg/d,2 (33.3) n %
same,Skin and Subcutaneous Tissue Disorders,8 mg/d,1 (16.7) n %
same,Sleep difficult,8 mg/d,0 n %
same,Sleep disturbance,8 mg/d,0 n %
same,Somnolence,8 mg/d,2 (33.3) n %
same,Sore throat,8 mg/d,1 (16.7) n %
same,Spaced out,8 mg/d,1 (16.7) n %
same,Syncope,8 mg/d,0 n %
same,Taste change,8 mg/d,1 (16.7) n %
same,Temporal disorientation,8 mg/d,2 (33.3) n %
same,Tingling,8 mg/d,1 (16.7) n %
same,Tiredness,8 mg/d,3 (50.0) n %
same,Visual disturbance,8 mg/d,1 (16.7) n %
same,Vivid dreams,8 mg/d,2 (33.3) n %
same,Vomiting,8 mg/d,1 (16.7) n %
same,Abnormal physical sensation,12 mg/d,0 n %
